Measurements published in patent US10758609B2, “Cross-reactive T-cell epitopes of HIV, SIV, and FIV for vaccines in humans and cats” (priority 2015, dated 2020).
Residues, ends and D or L forms follow the SMILES beside them.

Columns and labels:
[1] = system: CD8^+ T cells from HIV^+ subjects; experiment: FACS-based intracellular staining (ICS) for cytolysin (perforin) and cytotoxins (GrzA, GrzB) in CD8+ T cells; conditions: HIV-1 epitope peptide; HIV+ human subjects; threshold ≥0.2%
Description: (§1) The overlapping peptide pools of FIV and HIV-1 structural and enzyme proteins were used to stimulate the […] (PBMC) and the T cells from HIV^+ subjects as previously described for epitope mapping of HIV-1 and FIV p24 and reverse transcriptase (RT) (Sanou et al., 2013; Roff et al., 2015). The individual peptides in those peptide pools with positive responses to either interferon-γ (IFNγ) production and/or T-cell proliferation were determined with IFNγ ELISpot analysis and CFSE-based CD3^+CD4^+ and CD3^+CD8^+ T-cell proliferation analyses followed by the FACS-based intracellular staining (ICS) for cytolysin (perforin) and cytotoxin (granzyme A [GrzA] and GrzB) (Sanou et al., 2013; Roff et al., 2015). Besides viral p24 and RT proteins, the identical approach was used to identify anti-HIV/FIV T-cell epitopes on viral matrix (MA), nucleocapsid (NC), protease (PR), RNAase, integrase (IN), surface envelope (SU Env), and transmembrane envelope (TM Env) (FIG. 12).
(§2) Since our goal is to develop HIV vaccine for human use, the HIV peptides (Table 10) counterpart of the cross-reactive FIV peptides shown in Table 9 were tested with PBMC and T cells from HIV^+ subjects. The immune functions analyzed were human IFNγ production by ELISpot, cytolysin/cytotoxin production by ICS, and CFSE-based proliferation of CD3^+CD4^+ and CD3^+CD8^+ T cells from HIV^+ subjects (Table 10, the first set of results). In addition, the Los Alamos National Laboratories (LANL) database was used to identify the HLA allele(s) of the HIV epitope sequence with CTL activity that can exist within the sequence of the conserved counterpart HIV peptide (Table 9, LANL CTL). The bold HLA class-I supertypes and the bold 2-digit alleles are those on the “Optimal CD8^+ CTL Epitopes” list and those without bold are alleles for potential CTL epitope. […] The HLA class II such as HLA-DRB1 has yet to be fully classified into supertypes, and therefore the 4-digit resolution nomenclatures for the HLA-DRB1 alleles are shown.
The threshold for positive IFNγ and IL2 ELISpot responses is ≥50 spot-forming units (SFU) per 10^6 PBMC. The threshold for CFSE-based CD4^+ and CD8^+ T-cell proliferation is ≥2% CD4^+ T-cell CFSE^low or CD8^+ T-cell CFSE^low. The threshold of FACS-based intracellular cytokine staining (ICS) is ≥0.2%. […] The nine FIV peptides in black were used in the current MAP vaccine trial, whereas the 13 peptides in blue were not used. […] The MAPs and their corresponding peptide(s) were also tested for their ability to enhance or suppress in vitro FIV infection of feline PBMC (E/S of peptides and E/S of MAP).
(§3) The counterpart HIV-1 peptides of the FIV peptides were also tested for immunogenicity using PBMC and T cells from HIV^+ human subjects. […] The HRT7-1 and HRT7-2 were also tested with cells from HIV^+ subjects on ART. The threshold for positive IFNγ ELISpot response is ≥75 spot-forming units (SFU) per 10^6 PBMC. The threshold for CFSE-based CD4^+ (CD4^+ T) and CD8^+ (CD8^+ T) T-cell proliferation is ≥2% CD4^+ T-cell CFSE^low or CD8^+ T-cell CFSE^low. The threshold of intracellular cytokine staining (ICS) of FACS-based cytolysin (perforin) and cytotoxins (granzymes A and B) in CD4^+ T cells (CyCD4) and CD8^+ T cells (CyCD8) is ≥0.2%. […] The nine HIV-1 peptides in black are the counterpart FIV peptides used in the current MAP vaccine trial, whereas the 13 peptides in blue were not.

[2] = system: CD4^+ T cells from HIV^+ subjects; conditions: HIV+ human subjects; for CyCD4: CD4+ T-cell cytolysin/cytotoxins (perforin, GrzA & B), frequency of responders: HIV-1 epitope peptide, threshold ≥0.2%; for CyCD4 (cytolysin and cytotoxin production of CD4+ T cells), frequency of responders: HIV-1 peptides
Description: as §1, §2, §3

Compound | CyCD8: CD8+ T-cell cytolysin/cytotoxins (perforin, GrzA & B), frequency of responders [1] | CyCD4: CD4+ T-cell cytolysin/cytotoxins (perforin, GrzA & B), frequency of responders [2] | CyCD4 (cytolysin and cytotoxin production of CD4+ T cells), frequency of responders [2]
CC[C@H](C)[C@H](NC(=O)[C@H](C)NC(=O)[C@@H]1CCCN1C(=O)[C@H](CO)NC(=O)CNC(=O)[C@H](CCCCN)NC(=O)[C@H](Cc1c[nH]c2ccccc12)NC(=O)CNC(=O)[C@H](CCC(N)=O)NC(=O)[C@@H]1CCCN1C(=O)[C@H](CC(C)C)NC(=O)[C@@H](NC(=O)[C@@H](N)CC(N)=O)C(C)C)C(=O)N[C@@H](Cc1ccccc1)C(=O)O [HRT7-2] | − (0%-1.4% (−)) | − (0%-1.4% (−)) | 
CSCC[C@H](NC(=O)[C@@H](NC(=O)[C@H](CC(N)=O)NC(=O)[C@H](CC(C)C)NC(=O)[C@H](CC(=O)O)NC(=O)[C@H](CCC(N)=O)NC(=O)[C@@H]1CCCN1)[C@@H](C)O)C(=O)N[C@@H](CC(C)C)C(=O)N[C@@H](CC(N)=O)C(=O)N[C@H](C(=O)N[C@H](C(=O)NCC(=O)NCC(=O)N[C@@H](Cc1c[nH]cn1)C(=O)N[C@@H](CCC(N)=O)C(=O)O)C(C)C)[C@@H](C)O [Hp4-3] (H-PQDLNTMLNTVGGHQ-OH; N-terminus and C-terminus assumed) | ++ (25.1%-40% (++)) | − (0%-1.4% (−)) | 
CSCC[C@H](NC(=O)[C@H](Cc1c[nH]c2ccccc12)NC(=O)[C@H](CC(N)=O)NC(=O)[C@H](CCCCN)NC(=O)[C@@H](NC(=O)[C@H](CCC(=O)O)NC(=O)[C@H](CCC(N)=O)NC(=O)[C@H](CO)NC(=O)[C@H](C)N)C(C)C)C(=O)N[C@H](C(=O)N[C@@H](CCC(=O)O)C(=O)N[C@H](C(=O)N[C@@H](CC(C)C)C(=O)N[C@@H](CC(C)C)C(=O)N[C@H](C(=O)O)C(C)C)[C@@H](C)O)[C@@H](C)O [Hp14-3 (15-2)] (H-ASQEVKNWMTETLLV-OH) | ++++ (>54% (++++)) | ++++ (>54% (++++)) | 
CC(C)[C@H](NC(=O)CNC(=O)[C@H](CO)NC(=O)[C@H](CCCNC(=N)N)NC(=O)[C@H](Cc1ccccc1)NC(=O)[C@H](CO)NC(=O)[C@H](CCC(=O)O)NC(=O)[C@H](CCC(=O)O)NC(=O)[C@@H]1CCCN1C(=O)[C@@H]1CCCN1C(=O)[C@H](C)NC(=O)[C@@H](N)[C@@H](C)O)C(=O)N[C@@H](CCC(=O)O)C(=O)N[C@H](C(=O)N[C@H](C(=O)N[C@H](C(=O)O)[C@@H](C)O)[C@@H](C)O)[C@@H](C)O [HNC2] (H-TAPPEESFRSGVETTT-OH; N-terminus and C-terminus assumed) | + (12.5%-25% (+)) | − (0%-1.4% (−)) | 
CC[C@H](C)[C@H](NC(=O)CN)C(=O)N[C@@H](CCCNC(=N)N)C(=O)N[C@@H](Cc1ccc(O)cc1)C(=O)N[C@@H](CCC(N)=O)C(=O)N[C@@H](Cc1ccc(O)cc1)C(=O)N[C@@H](CC(N)=O)C(=O)N[C@H](C(=O)N[C@@H](CC(C)C)C(=O)N1CCC[C@H]1C(=O)N[C@@H](CCC(N)=O)C(=O)NCC(=O)N[C@@H](Cc1c[nH]c2ccccc12)C(=O)N[C@@H](CCCCN)C(=O)NCC(=O)O)C(C)C [HRT7-1] | − (0%-1.4% (−)) | − (0%-1.4% (−)) | 
CC[C@H](C)[C@H](NC(=O)CNC(=O)[C@H](CC(C)C)NC(=O)[C@H](CC(C)C)NC(=O)[C@H](CCC(N)=O)NC(=O)[C@H](CCC(N)=O)NC(=O)[C@H](CC(=O)O)NC(=O)[C@H](CCCCN)NC(=O)[C@H](CC(C)C)NC(=O)[C@@H](N)Cc1ccc(O)cc1)C(=O)N[C@@H](Cc1c[nH]c2ccccc12)C(=O)NCC(=O)N[C@@H](CS)C(=O)O [HTM4-3] (H-YLKDQQLLGIWGC-OH; N-terminus and C-terminus assumed) | + (12.5%-25% (+)) | − (0%-1.4% (−)) | 
CC[C@H](C)[C@H](NC(=O)[C@H](CCCCN)NC(=O)[C@@H](NC(=O)[C@@H](NC(=O)[C@H](CCCCN)NC(=O)[C@H](Cc1ccc(O)cc1)NC(=O)[C@H](CCCCN)NC(=O)[C@H](Cc1ccc(O)cc1)NC(=O)[C@H](CC(C)C)NC(=O)[C@H](CCC(=O)O)NC(=O)[C@H](CO)NC(=O)[C@H](CCCNC(=N)N)NC(=O)[C@H](Cc1c[nH]c2ccccc12)NC(=O)[C@H](CC(N)=O)NC(=O)[C@@H](N)CC(=O)O)C(C)C)C(C)C)C(=O)O [HSU4] (H-DNWRSELYKYKVVKI-OH; N-terminus and C-terminus assumed) | + (12.5%-25% (+)) | − (0%-1.4% (−)) | 
CC[C@H](C)[C@H](NC(=O)[C@H](CCCNC(=N)N)NC(=O)[C@@H](N)CC(C)C)C(=O)N[C@H](C(=O)N[C@@H](Cc1ccccc1)C(=O)N[C@@H](C)C(=O)N[C@H](C(=O)N[C@@H](CC(C)C)C(=O)N[C@@H](CO)C(=O)N[C@H](C(=O)N[C@H](C(=O)N[C@@H](CC(N)=O)C(=O)N[C@@H](CCCNC(=N)N)C(=O)N[C@H](C(=O)N[C@@H](CCCNC(=N)N)C(=O)N[C@@H](CCC(N)=O)C(=O)O)C(C)C)C(C)C)[C@@H](C)CC)C(C)C)C(C)C [HTM8(20)] (H-LRIVFAVLSIVNRVRQ-OH; N-terminus and C-terminus assumed) | − (0%-1.4% (−)) | − (0%-1.4% (−)) | 
CC(C)C[C@H](NC(=O)[C@H](CCC(=O)O)NC(=O)[C@H](CCCNC(=N)N)NC(=O)[C@H](Cc1ccccc1)NC(=O)[C@H](CC(=O)O)NC(=O)[C@@H](NC(=O)[C@H](CC(C)C)NC(=O)[C@H](CCCCN)NC(=O)[C@H](CCCNC(=N)N)NC(=O)[C@@H](N)Cc1c[nH]c2ccccc12)C(C)C)C(=O)N[C@@H](CC(N)=O)C(=O)N[C@@H](CCCCN)C(=O)N[C@@H](CCCNC(=N)N)C(=O)O [HRT3-4] | ++++ (>54% (++++)) | ++++ (>54% (++++)) | ++++ (>54% (++++))
CC(C)C[C@H](NC(=O)[C@H](C)NC(=O)[C@@H](N)CCC(=O)O)C(=O)N[C@@H](CC(C)C)C(=O)N[C@@H](CC(=O)O)C(=O)N[C@H](C(=O)NCC(=O)N[C@@H](C)C(=O)N[C@@H](CC(=O)O)C(=O)N[C@@H](CC(=O)O)C(=O)N[C@H](C(=O)N[C@H](C(=O)N[C@@H](CC(C)C)C(=O)N[C@@H](CCC(=O)O)C(=O)O)C(C)C)[C@@H](C)O)[C@@H](C)O [HPR2] (H-EALLDTGADDTVLE-OH; N-terminus and C-terminus assumed) | − (0%-1.4% (−)) | − (0%-1.4% (−)) | 
CSCC[C@H](NC(=O)[C@H](Cc1c[nH]c2ccccc12)NC(=O)[C@H](CC(N)=O)NC(=O)[C@H](CCCCN)NC(=O)[C@@H](N)C(C)C)C(=O)N[C@H](C(=O)N[C@@H](CCC(=O)O)C(=O)N[C@H](C(=O)N[C@@H](CC(C)C)C(=O)N[C@@H](CC(C)C)C(=O)N[C@H](C(=O)N[C@@H](CCC(N)=O)C(=O)N[C@@H](CC(N)=O)C(=O)N[C@@H](C)C(=O)N[C@@H](CC(N)=O)C(=O)O)C(C)C)[C@@H](C)O)[C@@H](C)O [Hp14-3(15-3)] (H-VKNWMTETLLVQNAN-OH; N-terminus and C-terminus assumed) |  |  | ++++ (>54% (++++))
